Test [1] concerns the target T1, Tyrosine-protein kinase receptor TYRO3 (Homo sapiens) (UniProt Q06418).
T1 sequence (whole entry): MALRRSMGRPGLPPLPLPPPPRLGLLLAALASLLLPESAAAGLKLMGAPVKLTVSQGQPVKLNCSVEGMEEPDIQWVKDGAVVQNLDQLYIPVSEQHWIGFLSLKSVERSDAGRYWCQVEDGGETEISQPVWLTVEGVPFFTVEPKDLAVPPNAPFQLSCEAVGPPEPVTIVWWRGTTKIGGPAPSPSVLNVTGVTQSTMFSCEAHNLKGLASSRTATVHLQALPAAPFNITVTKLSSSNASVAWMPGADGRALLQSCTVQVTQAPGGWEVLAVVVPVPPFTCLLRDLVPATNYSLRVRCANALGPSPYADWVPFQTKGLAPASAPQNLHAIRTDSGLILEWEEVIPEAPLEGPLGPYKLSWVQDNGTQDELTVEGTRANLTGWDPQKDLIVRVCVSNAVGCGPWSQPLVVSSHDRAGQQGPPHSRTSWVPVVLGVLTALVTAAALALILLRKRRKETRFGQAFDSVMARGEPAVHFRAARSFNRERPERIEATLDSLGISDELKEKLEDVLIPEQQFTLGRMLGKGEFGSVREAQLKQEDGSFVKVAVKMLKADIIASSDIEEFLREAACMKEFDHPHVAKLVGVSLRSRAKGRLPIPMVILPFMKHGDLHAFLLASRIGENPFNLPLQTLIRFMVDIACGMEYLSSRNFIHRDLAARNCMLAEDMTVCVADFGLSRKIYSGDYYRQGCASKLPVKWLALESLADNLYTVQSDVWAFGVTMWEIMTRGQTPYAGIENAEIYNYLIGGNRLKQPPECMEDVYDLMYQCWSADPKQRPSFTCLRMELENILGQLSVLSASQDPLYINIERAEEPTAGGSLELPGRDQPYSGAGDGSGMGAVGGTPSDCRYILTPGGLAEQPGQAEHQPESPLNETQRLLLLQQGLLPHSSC
The experiment in a line: Selectivity interaction (KinomeScan (DiscoverX)) EUB0000092b TYRO3. To be noted: at 10 µM.

In test [2] the target is T2, Serine/threonine-protein kinase D2 (Homo sapiens) (UniProt Q9BZL6).
T2 sequence (whole entry): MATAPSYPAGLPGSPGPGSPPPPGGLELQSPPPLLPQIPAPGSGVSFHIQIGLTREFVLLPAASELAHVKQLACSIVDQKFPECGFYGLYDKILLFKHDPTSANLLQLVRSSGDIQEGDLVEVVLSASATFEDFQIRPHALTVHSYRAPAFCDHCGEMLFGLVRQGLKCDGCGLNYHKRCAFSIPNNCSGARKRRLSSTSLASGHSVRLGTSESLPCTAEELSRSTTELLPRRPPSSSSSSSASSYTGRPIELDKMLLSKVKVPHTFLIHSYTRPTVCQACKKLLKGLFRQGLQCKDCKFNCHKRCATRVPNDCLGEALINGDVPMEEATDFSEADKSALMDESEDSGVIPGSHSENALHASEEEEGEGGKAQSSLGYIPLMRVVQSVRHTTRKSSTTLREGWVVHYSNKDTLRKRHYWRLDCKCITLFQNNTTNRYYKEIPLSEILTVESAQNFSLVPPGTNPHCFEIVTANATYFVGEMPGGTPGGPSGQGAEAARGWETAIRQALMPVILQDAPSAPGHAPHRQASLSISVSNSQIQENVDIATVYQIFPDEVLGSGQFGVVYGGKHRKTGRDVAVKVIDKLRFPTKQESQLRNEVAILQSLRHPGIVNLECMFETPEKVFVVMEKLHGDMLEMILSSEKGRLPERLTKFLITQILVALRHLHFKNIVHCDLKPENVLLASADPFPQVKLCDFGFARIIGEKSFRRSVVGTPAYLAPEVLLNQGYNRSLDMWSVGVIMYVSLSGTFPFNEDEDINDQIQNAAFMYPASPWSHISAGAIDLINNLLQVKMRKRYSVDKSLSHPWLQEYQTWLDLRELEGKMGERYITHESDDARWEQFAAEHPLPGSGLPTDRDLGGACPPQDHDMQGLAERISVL
The experiment in a line: Selectivity interaction (KinomeScan (DiscoverX)) EUB0000655a PRKD2. To be noted: at 10 µM.

A further test deals with Focal adhesion kinase 1 (Homo sapiens, UniProt Q05397). The experiment in a line: Selectivity interaction (KinomeScan (DiscoverX)) EUB0000655a PTK2. To be noted: at 10 µM.
Chain of Focal adhesion kinase 1 (Q05397 2-1052 limits assumed): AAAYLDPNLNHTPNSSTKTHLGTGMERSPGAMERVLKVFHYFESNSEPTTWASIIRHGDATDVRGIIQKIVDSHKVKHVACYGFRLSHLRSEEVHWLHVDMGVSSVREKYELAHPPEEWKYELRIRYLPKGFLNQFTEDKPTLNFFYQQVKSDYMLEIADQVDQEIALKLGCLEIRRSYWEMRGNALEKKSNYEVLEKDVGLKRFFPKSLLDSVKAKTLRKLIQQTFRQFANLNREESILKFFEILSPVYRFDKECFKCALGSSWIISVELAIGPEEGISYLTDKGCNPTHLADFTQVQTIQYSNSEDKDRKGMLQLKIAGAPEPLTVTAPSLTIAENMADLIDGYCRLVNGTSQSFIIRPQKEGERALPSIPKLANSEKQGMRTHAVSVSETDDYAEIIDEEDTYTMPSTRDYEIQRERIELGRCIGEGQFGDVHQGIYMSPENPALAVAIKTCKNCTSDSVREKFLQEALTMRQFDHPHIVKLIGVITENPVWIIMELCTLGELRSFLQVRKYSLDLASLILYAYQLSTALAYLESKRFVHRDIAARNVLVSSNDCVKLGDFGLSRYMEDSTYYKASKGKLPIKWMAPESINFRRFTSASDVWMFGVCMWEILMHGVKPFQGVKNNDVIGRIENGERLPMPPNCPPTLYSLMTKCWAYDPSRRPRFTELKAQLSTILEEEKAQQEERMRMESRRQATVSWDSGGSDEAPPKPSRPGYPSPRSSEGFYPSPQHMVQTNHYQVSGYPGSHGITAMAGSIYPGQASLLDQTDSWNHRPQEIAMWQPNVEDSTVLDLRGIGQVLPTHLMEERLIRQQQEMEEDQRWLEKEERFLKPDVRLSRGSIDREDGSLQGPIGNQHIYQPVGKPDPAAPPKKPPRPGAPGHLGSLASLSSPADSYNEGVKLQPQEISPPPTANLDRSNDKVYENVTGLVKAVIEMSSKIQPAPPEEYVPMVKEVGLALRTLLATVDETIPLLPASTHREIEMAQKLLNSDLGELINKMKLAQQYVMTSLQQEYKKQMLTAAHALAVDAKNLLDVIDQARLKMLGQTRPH
In test [3] the target is Cyclin-dependent kinase 3 (Homo sapiens) (UniProt Q00526). The experiment in a line: Selectivity interaction (KinomeScan (DiscoverX)) EUB0000655a CDK3. To be noted: at 10 µM.
Chain of Cyclin-dependent kinase 3 (Homo sapiens) (Q00526 whole entry, looked up): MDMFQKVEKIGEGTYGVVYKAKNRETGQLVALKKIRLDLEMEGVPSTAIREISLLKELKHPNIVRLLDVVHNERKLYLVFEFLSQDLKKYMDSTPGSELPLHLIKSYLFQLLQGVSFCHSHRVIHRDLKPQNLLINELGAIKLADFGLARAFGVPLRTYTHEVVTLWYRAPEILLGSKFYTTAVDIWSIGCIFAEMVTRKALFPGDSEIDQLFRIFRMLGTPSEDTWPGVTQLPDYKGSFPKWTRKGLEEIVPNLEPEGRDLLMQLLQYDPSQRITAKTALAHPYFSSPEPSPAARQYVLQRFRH
The target in test [4] is Mitogen-activated protein kinase 8 (Homo sapiens, UniProt P45983). The experiment in a line: Selectivity interaction (KinomeScan (DiscoverX)) EUB0000607a MAPK8. To be noted: at 10 µM.
Chain of Mitogen-activated protein kinase 8 (P45983 whole entry): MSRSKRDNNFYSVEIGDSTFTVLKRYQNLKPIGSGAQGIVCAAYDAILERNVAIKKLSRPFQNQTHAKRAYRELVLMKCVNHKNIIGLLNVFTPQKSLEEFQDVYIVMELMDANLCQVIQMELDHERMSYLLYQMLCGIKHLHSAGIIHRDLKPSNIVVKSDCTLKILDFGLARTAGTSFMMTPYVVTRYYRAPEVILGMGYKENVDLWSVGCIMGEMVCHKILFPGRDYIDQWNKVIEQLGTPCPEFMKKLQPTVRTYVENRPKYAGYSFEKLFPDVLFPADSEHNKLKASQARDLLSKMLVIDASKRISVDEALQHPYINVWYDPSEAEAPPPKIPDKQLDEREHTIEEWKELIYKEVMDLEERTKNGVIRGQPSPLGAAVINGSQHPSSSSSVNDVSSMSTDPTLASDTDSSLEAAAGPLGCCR
The target in test [5] is T3, Inhibitor of nuclear factor kappa-B kinase subunit epsilon (Homo sapiens) (UniProt Q14164).
T3 sequence (whole entry): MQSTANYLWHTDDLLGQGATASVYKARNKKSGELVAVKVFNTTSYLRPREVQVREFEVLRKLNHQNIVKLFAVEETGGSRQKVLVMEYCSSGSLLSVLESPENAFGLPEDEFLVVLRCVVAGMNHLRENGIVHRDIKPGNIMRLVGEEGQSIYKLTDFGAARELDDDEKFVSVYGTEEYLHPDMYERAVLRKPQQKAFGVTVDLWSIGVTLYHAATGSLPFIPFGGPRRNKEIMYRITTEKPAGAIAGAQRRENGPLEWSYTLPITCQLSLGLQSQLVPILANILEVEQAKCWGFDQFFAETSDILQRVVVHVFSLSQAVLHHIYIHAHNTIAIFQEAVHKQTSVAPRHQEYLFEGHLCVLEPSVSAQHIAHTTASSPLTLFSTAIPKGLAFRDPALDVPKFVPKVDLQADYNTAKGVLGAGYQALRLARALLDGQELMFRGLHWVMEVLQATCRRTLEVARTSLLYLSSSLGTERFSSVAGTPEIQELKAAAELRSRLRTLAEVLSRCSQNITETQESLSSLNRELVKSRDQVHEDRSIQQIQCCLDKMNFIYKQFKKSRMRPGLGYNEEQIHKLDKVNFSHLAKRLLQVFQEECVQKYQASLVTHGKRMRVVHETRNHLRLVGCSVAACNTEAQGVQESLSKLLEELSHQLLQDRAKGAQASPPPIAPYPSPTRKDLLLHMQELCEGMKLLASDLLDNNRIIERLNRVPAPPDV
The test can be described thus: Selectivity interaction (ActivX KiNativ screen (kinase selectivity in THP-1 cell lysates)) EUB0000639a IKBKE. To be noted: lysate, at 0.2 µM. The class given is subcellular.

Test [6] has as its target Cyclin-dependent kinase 2 (Homo sapiens, UniProt P24941). The test can be described thus: Selectivity interaction (Kinase panel (enzymatic assay)) EUB0000595a CDK2.
Test [7] has as its target Phosphatidylinositol 3-kinase catalytic subunit type 3 (Homo sapiens, UniProt Q8NEB9). The test can be described thus: Selectivity interaction (Kinase panel (KiNativ target engagement assay in Jurkat cells)) EUB0001635a PIK3C3. To be noted: Selectivity number of off-targets 0.0, Selectivity number of targets 233.0, Source Knowledge https://www.sciencedirect.com/science/article/pii/S2451945619300674?via%3Dihub, at 1 µM. The test is classed as cell-based.

Molecules are shown by their SMILES.

As a reminder, the IC50 is the midpoint of a concentration-inhibition curve. Higher therefore signals weaker potency.

Chain of Phosphatidylinositol 3-kinase catalytic subunit type 3 (Q8NEB9 whole entry): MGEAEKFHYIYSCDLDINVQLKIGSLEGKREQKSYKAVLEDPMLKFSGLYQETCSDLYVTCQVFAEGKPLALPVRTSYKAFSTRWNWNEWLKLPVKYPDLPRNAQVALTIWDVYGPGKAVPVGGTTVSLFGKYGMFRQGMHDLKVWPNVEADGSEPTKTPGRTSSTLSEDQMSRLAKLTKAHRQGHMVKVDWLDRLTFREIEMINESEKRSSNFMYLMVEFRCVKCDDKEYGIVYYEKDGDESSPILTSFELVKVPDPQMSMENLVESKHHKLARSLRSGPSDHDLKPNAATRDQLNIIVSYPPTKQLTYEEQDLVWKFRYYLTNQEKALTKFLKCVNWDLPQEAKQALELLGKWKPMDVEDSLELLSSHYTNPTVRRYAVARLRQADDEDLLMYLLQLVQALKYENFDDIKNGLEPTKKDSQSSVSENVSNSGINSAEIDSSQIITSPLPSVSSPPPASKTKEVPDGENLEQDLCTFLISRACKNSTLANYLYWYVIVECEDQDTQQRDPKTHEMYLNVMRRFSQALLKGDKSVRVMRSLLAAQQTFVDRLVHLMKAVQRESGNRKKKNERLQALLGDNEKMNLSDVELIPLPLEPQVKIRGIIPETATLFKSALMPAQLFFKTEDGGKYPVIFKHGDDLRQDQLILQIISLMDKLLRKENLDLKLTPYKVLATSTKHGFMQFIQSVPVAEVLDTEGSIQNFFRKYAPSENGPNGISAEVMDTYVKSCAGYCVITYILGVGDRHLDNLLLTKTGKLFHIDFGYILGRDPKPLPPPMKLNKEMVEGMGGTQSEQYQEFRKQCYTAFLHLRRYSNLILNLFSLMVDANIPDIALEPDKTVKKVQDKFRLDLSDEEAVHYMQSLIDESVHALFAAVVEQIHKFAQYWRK

`CCC(=O)N1CCN(c2ccc(-n3c(=O)ccc4cnc5ccc(-c6cnc7ccccc7c6)cc5c43)cc2C(F)(F)F)CC1` showed a % of control in test [1] of 31%.

For the molecule `CN(C)CCOc1ccc(-c2nc(-c3ccncc3)c(-c3ccc4c(c3)CC/C4=N\O)[nH]2)cc1`, the % of control in test [2] was 80%; at Focal adhesion kinase 1, 100%; in test [3], 98%.

Take `CNC(=O)Nc1ccc(-c2nc(N3CC4CCC(C3)O4)c3cnn(C4CCC5(CC4)OCCO5)c3n2)cc1`: the % of control in test [4] came to 91%.

On to `CC[C@@H]1[C@H](F)C(=O)N[C@@H]1COc1nccc2cc(C(N)=O)c(OC)cc12` [ZIMLOVISERTIB], for which the % of inhibition in test [5] is -29.9%.

Molecule `COCC(=O)NC/C=C/c1ccc2ncnc(Nc3ccc(Oc4ccc(C)nc4)c(C)c3)c2c1` [CP-724714] yielded a concentration for half-maximal inhibition (IC50) in test [6] of over 10 µM.

`C=CC(=O)Nc1ccc(C(=O)Nc2[nH]nc3c2CN(C(=O)N[C@H](CN(C)C)c2ccccc2)C3(C)C)cc1`: in test [7], the % of engagement is -5.1%.

The values above are taken from ChEMBL document CHEMBL5465560, “Selectivity Literature for EUbOPEN Chemogenomic Library” (2024).
